{
  "source": "patent US20210330756A1",
  "about": "“Acetylation of Miro1” (University of South Carolina, priority 2020, published 2021)",
  "key": {"[1]": {"tested_on": "sciatic nerve axonal mitochondria", "experiment": "In vivo imaging of axonal mitochondrial transport in sciatic nerve", "set-up": "species or system mouse", "experimental": "Together, these experiments indicate that HDAC6 activity impacts axonal mitochondrial transport in vitro and in vivo.\nSciatic nerves were exposed in live, isofluorane-anaesthetized animals (female C57BL6/J mice aged 41-42 d after birth) as previously reported (Gibbs et al., 2016; Sleigh and Schiavo, 2016). Briefly, 10-μ1 glass micropipettes (Drummond Scientific; 5-000-1001-X10) were pulled (Mohan et al., 2015) and used to inject 2 μl of 1.5 mM TubA or DMSO (Sigma-Aldrich; D2650) vehicle control in sterile saline (0.9% wt/vol) into the proximal aspect of the exposed sciatic nerve. 2 μM tetramethylrhodamine, ethyl ester, perchlorate (Thermo Fisher Scientific; T669), and 0.1% (wt/vol) bromophenol blue (Sigma-Aldrich; B5525) were included in the injected solution to label mitochondria and confirm successful injection beneath the perineurium, respectively.\nBody temperature was maintained using a heat pad during surgery and drug incubation. Sciatic nerves were imaged from 20 to 90 min after injection using an inverted LSM 780 laser scanning microscope (Zeiss) Plan-Apochromat 63×/1.4 NA Oil DIC M27 objective within an environmental chamber prewarmed and set to 37° C. An area containing labeled axons was selected and imaged for 444-1,000 s at 100×digital zoom every ˜4 s (1,024×1,024 pixels, 0.5-μs pixel dwell time, 1% laser power). Four animals were imaged per day (two per treatment). Image series were converted into AVI files, and mitochondrial dynamics were assessed using Kinetic Imaging Software. Mitochondria were included in analyses when they could be tracked for at least five consecutive frames. At least 10 mitochondria (mean of 49.1) across at least three axons (mean of 4.38) per animal were tracked, and all analyses were performed blinded to treatment."}, "Ac-histone H4": {"tested_on": "Ac-histone H4", "experiment": "Immunoblotting for Ac-histone H4 in adult DRG neurons (HDAC specificity)", "assay_type": "cell-based, rat", "experimental": "We tested for this specificity in the adult DRG neurons from above by immunoblotting. […] (A) Number of mitochondria in growth cones after exposing DRG cultures to 10 μM TubA versus vehicle (control) for 1 h is shown as average fold-change in number of mitochondria per growth cone±SEM (n=13 axons across three culture preparations; *, P≤0.05 by one-way ANOVA with Bonferroni post hoc analysis). (B) Representative EMs of Remak bundles (arrowheads) in naive Sciatic nerve and nerves after 2 h vehicle (DMSO) or TubA injection are shown. Arrows indicate mitochondria in the unmyelinated axons. Note that a Schwann cell nucleus (asterisk) is seen in the Remak bundle for DMSO image but not the other two micrographs (scale bar=3 μm). (C) Quantification of number of mitochondria per unmyelinated axon from EM images as in B is shown as average±SEM (n≥5; *****, P≤0.0001 by one-way ANOVA with Bonferroni post hoc analysis). (D-F) Quantification for indicated parameters for mitochondrial transport in sciatic nerve in vivo using tetramethylrhodamine, ethyl ester, perchlorate to visualize mitochondria is shown.\nFor immunoblotting, protein lysates or immunoprecipitates were denatured by boiling in Laemmli sample buffer, fractionated by SDS-PAGE, and transferred to nitrocellulose membranes. Blots were blocked for 1 h at room temperature with 5% nonfat dry milk in TBS with 0.1% Tween 20 (TBST). Primary antibodies diluted in 5% BSA in TBST were added to the membranes and incubated overnight at 4° C. with rocking. Primary antibodies consisted of rabbit anti-Myc (1:2,000; Cell Signaling; 71D10), rabbit anti-RHOT1 antibody (1:1,000; Aviva Systems Biology; ARP44817 P050), rabbit anti-HDAC6 antibody (1:2,000; Cell Signaling; 7558), rabbit anti-ERK1 (1:5,000; Abcam; ab32537), and affinity-purified custom rabbit anti-Miro1-AcK105 (1:2,500; Twiss laboratory, see above) antibodies. For the anti-Miro1-AcK105 antibody, preimmune and test-bleed sera were used at 1:1,000 dilutions to initially evaluate for specificity. After washing in TBST, blots were incubated with HRP-conjugated anti-rabbit IgG antibodies (1:5,000; Jackson Immunoresearch) diluted in blocking buffer for 1 h at room temperature. Signals were detected using ECL Prime (GE Healthcare) after extensive washing."}},
  "data": [
    {"smiles": "CN1CCc2c(c3ccccc3n2Cc2ccc(C(=O)NO)cc2)C1", "note": "[TubA, tubastatin]", "values": [
      {"measurement": "pausing of moving mitochondria", "setting": "[1]; retrogradely versus anterogradely moving, after TubA", "value": "significantly increased pausing for retrogradely versus anterogradely moving mitochondria"},
      {"measurement": "ratio of anterogradely to retrogradely moving axonal mitochondria", "setting": "[1]; sciatic nerve injection, 2 μl of 1.5 mM, in vivo imaging", "value": "increased"},
      {"measurement": "significance of antero/retrograde ratio and speed of movement vs vehicle control", "setting": "[1]; sciatic nerve injection, in vivo imaging", "value": "neither this nor the speed of movement showed significant differences"},
      {"measurement": "Ac-histone H4 levels", "setting": "Ac-histone H4; 1 μM", "value": "no change in Ac-histone H4 levels"},
      {"measurement": "Ac-histone H4 levels", "setting": "Ac-histone H4; 10 μM", "value": "no change in Ac-histone H4 levels"},
      {"measurement": "Ac-histone H4 levels", "setting": "Ac-histone H4; 100 μM", "value": "only modest increase in Ac-histone H4"}
    ]}
  ]
}
